Measured values taken from patent publication US20190111059A1, “COMPOSITIONS AND METHODS FOR TREATING AUTISM SPECTRUM DISORDER” (Marinus Pharmaceuticals, Inc., priority 2017, published 2019).
Where a name gives a salt, the structure may show the parent alone.

Test system: children with non-syndromic autism spectrum disorder (ASD) and language impairment
Test: Randomized double-blind placebo-controlled trial: verbal communication (CELF-preschool-2, CELF-4, PLS-5), primary outcome
Format: in vivo, human
Details: for Verbal communication, effect size (Cohen's d) / Verbal communication, estimated effect vs placebo / Verbal communication, 12 weeks: 2 mg kg^−1 per day; for Verbal communication, effect size (Cohen's d) / Verbal communication, estimated effect vs placebo / % Difference responders (folinic acid vs placebo) / Adjusted odds ratio of response / Number needed to treat / Unadjusted odds ratio of response / % responders / Number of responders (increase in five standardized points, verbal communication): 12 weeks; for Verbal communication, estimated effect vs placebo: mixed-model regression
Experimental: We sought to determine whether high-dose folinic acid improves verbal communication in children with non-syndromic autism spectrum disorder (ASD) and language impairment in a double-blind placebo control setting. Forty-eight children (mean age 7 years 4 months; 82% male) with ASD and language impairment were randomized to receive 12 weeks of high-dose folinic acid (2 mg kg^-1 per day, maximum 50 mg per day; n=23) or placebo (n=25). Children were subtyped by glutathione and folate receptor-α autoantibody (FRAA) status. […] FRAA status was predictive of response to treatment. […] 2012 to 22 Nov. 2013. Participants who met inclusion and exclusion criteria were screened for language impairment. Preverbal (<25 functional words) children qualified as language impaired. Otherwise, the age-appropriate version of the Clinical Evaluation of Language Fundamentals (CELF) confirmed language impairment. Language impairment was defined as a core standardized score<85 if the preschool version was used or failure on the CELF screener if other versions were used. Those confirmed to have language impairment were randomized to the folinic acid or placebo group and a fasting blood sample was obtained. Randomization was performed using a random number generator with a block size of four. The research pharmacists had exclusive access to the randomization allocation. After breakfast, the participants returned for language, developmental and behavioral assessments. Following these assessments the family was given the 12 weeks of the intervention and was instructed on its administration. Language, developmental and behavioral assessments were repeated after 12 weeks of treatment. The target dose of the intervention (INN: DL folinic acid calcium salt; USAN: leucovorin calcium) was 2 mg kg^-1 per day (maximum 50 mg per day) in two equally divided doses with half of the target dose given during the first 2 weeks. Dye-free, milk-product-free, vegetarian capsules were provided in three strengths (5, 10 and 25 mg) by Lee Silsby Compounding Pharmacy (Cleveland Heights, Ohio, USA). Certificate of analysis was provided for each capsule strength by an independent analytical service (Eagle Analytical Services, Houston, Tex., USA) for each batch of capsules produced. In all cases, potency was at least 99%. Primary outcome. Verbal communication was the primary outcome for several reasons. First, verbal communication improved in preliminary folinic acid treatment studies. Second, verbal communication in children with ASD is closely linked to parental quality of life. Third, the development of language and communication skills is associated with favorable outcomes. Instruments used were the CELF-preschool-2, CELF-4 and the Preschool Language Scale-5 (PLS-5). The standardized summary score of each instrument (mean 100, standard deviation 15) was the primary outcome measure and ranges from 50 to 150 for the PLS-5 and 45 to 155 for the CELF. The ability-appropriate instrument was selected using a structured algorithm. The goal was to select an instrument with an adequate dynamic range for assessing improvement in verbal communication. The assessment started with the most age-appropriate instrument. If the child obtained a score at the floor, the next lower ability instrument was then used. This process was repeated until a score above the floor could be obtained. The score from the final instrument was the primary outcome measure at baseline and at trial end. If the child's age exceeded the maximum age of the instrument's standardization, the maximum standardized age was used. At trial end, all instruments used during the baseline assessment were repeated in the same order to simulate the same baseline assessment experience and to minimize a potential confounder of cognitive fatigue. Studies have shown that early behavioral therapy improves verbal communication by one-standard deviation over 36 weeks. […]

[1] = antibody negative, folinic acid N = 10
[2] = antibody positive, folinic acid N = 13
[3] = glutathione high, folinic acid N = 14
[4] = glutathione low, folinic acid N = 9

For `Nc1nc2c(c(=O)[nH]1)N(C=O)C(CNc1ccc(C(=O)N[C@@H](CCC(=O)O)C(=O)O)cc1)CN2` (mixture of isomers) [Folinic acid, DL folinic acid calcium salt], the “Verbal communication, effect size (Cohen's d)” value (FRAA antibody negative N=17) was 0.30, the “Verbal communication, estimated effect vs placebo” value (shortened to “Verbal communication … vs placebo”) (FRAA antibody negative N=17, calcium salt) was 2.5 standardized score and the “Verbal communication … vs placebo” value (FRAA antibody negative N=17, listed as folinic acid, calcium salt) was “not significantly different”. The “Verbal communication, effect size (Cohen's d)” value (FRAA antibody positive N=31) was 0.91, the “Verbal communication … vs placebo” value (FRAA antibody positive N=31, calcium salt) was 7.3 standardized score and the “Verbal communication, effect size (Cohen's d)” value (glutathione redox ratio high N=24) was 0.46. For the same molecule, the “Verbal communication … vs placebo” value (glutathione redox ratio high N=24, calcium salt) was 3.0 standardized score, the “Verbal communication … vs placebo” value (glutathione redox ratio high N=24, listed as folinic acid, calcium salt) was “not significantly different” and the “Verbal communication, effect size (Cohen's d)” value (glutathione redox ratio low N=24) was 0.95. For the same molecule, the “Verbal communication … vs placebo” value (glutathione redox ratio low N=24, calcium salt) was 9.1 standardized score, the “Verbal communication … vs placebo” value (glutathione redox ratio low N=24, listed as folinic acid, calcium salt) was “significantly greater” and the “Verbal communication, effect size (Cohen's d)” value (overall N=48) was 0.70. For the same molecule, the “Verbal communication … vs placebo” value (overall N=48, calcium salt) was 5.7 standardized score, the “Verbal communication, 12 weeks” value (FRAA antibody negative, baseline 57.9) was 64.5 standardized score and the “Verbal communication, 12 weeks” value (FRAA antibody positive, baseline 58.1) was 66.1 standardized score. For the same molecule, the “Verbal communication, 12 weeks” value (glutathione redox ratio high, baseline 59.2) was 65.0 standardized score, the “Verbal communication, 12 weeks” value (glutathione redox ratio low, baseline 56.1) was 66.0 standardized score and the “Verbal communication, 12 weeks” value (overall, baseline 58.1) was 65.4 standardized score. For the same molecule, the “% Difference responders (folinic acid vs placebo)” value (from here on “% Difference responders”) (antibody negative) was 21%, the “Adjusted odds ratio of response” value (antibody negative) was 3.6 and the “Number needed to treat” value (antibody negative) was 4.7. For the same molecule, the “Unadjusted odds ratio of response” value (antibody negative) was 2.5, the “% responders” value [1] was 50% and the “Number of responders (increase in five standardized points, verbal communication)” value [1] was 5. For the same molecule, the “% Difference responders” value (antibody positive) was 55% (19%,, the “Adjusted odds ratio of response” value (antibody positive) was 67.4 and the “Number needed to treat” value (antibody positive) was 1.8. The “Unadjusted odds ratio of response” value (antibody positive) was 11.7, the “% responders” value [2] was 77% and the “Number of responders (increase in five standardized points, verbal communication)” value [2] was 10. For the same molecule, the “% Difference responders” value (glutathione high) was 34% (−4%,, the “Adjusted odds ratio of response” value (glutathione high) was 21.9 and the “Number needed to treat” value (glutathione high) was 2.9. For the same molecule, the “Unadjusted odds ratio of response” value (glutathione high) was 4.2, the “% responders” value [3] was 64% and the “Number of responders (increase in five standardized points, verbal communication)” value [3] was 9. The “% Difference responders” value (glutathione low) was 47% (10%,, the “Adjusted odds ratio of response” value (glutathione low) was 10.2 and the “Number needed to treat” value (glutathione low) was 2.1. The “Unadjusted odds ratio of response” value (glutathione low) was 8.0, the “% responders” value [4] was 67% and the “Number of responders (increase in five standardized points, verbal communication)” value [4] was 6. For the same molecule, the “Adjusted odds ratio of response” value (overall) was 14.9, the “Number needed to treat” value (overall) was 2.4 and the “Unadjusted odds ratio of response” value (overall) was 5.9. The “% responders” value (overall, folinic acid N = 23) was 65%, the “Number of responders (increase in five standardized points, verbal communication)” value (overall, folinic acid N = 23) was 15 and the “% Difference responders” value (overall, calcium salt) was 41% (13%,. The “% Difference responders” value (overall, listed as folinic acid, calcium salt) was “significantly more responders”.
